# Experimental data as given in patent US20260217719A1, “CDK2 INHIBITORS” (BLUEPRINT MEDICINES CORPORATION, priority 2023, published 2026).
# Where two headings read alike, the source gives them in different places.
# Columns and labels:
# CDK1/Cyclin B1, GST-tag = molecular target: T1, CDK1/Cyclin B1, GST-tag (Homo sapiens, UniProt P06493); assay: Enzymatic phosphorylation activity assay (Caliper mobility shift), CDK1/Cyclin B1; assay type: biochemical
# T1 construct: GST; purchased BPS 40454
# Method: (§1) Inhibitory effects of the compounds of the disclosure were measured in biochemical assays that measure the enzymatic phosphorylation activity of CDK enzyme in complex of Cyclin proteins phosphorylates 7.5 micromolar fluorescently labelled peptide substrate, 5-FAM-QSPKKG-CONH2, (FL-Peptide 18, Perkin Elmer, 760362) in the presence of adenosine-5′-triphosphate (ATP) and varying concentrations of the test compound in 100 mM 2-[4-(2-hydroxyethyl)piperazin-1-yl] ethanesulfonic acid (HEPES), pH 7.5, 10 mM MgCl2, 0.015% Brij-35, 1 mM dithiothreitol (DTT), 1.0% dimehylsulfoxide (DMSO). […] Reactions proceeded until between 10% to 20% total peptides were phosphorylated at room temperature (25° C.) and were terminated with 35 mM 2,2′,2″,2″-(ethane-1,2-diyldinitrilo)tetraacetic acid (EDTA). Product was detected using the Caliper mobility shift detection method where the phosphorylated peptide (product) and substrate were electrophoretically separated and measured. Percent activity was plotted against log concentration of compound and points to generate an apparent IC50. The following CDK enzymes in complex with different cyclin proteins were used in these assays: • CDK1/Cyclin B1, GST-tag (BPS, 40454), 1.5 nM used in the assay • CDK2/Cyclin E (Eurofins, 14-475), 1.25 nM used in the assays
# CDK2/Cyclin E = molecular target: T2, CDK2/Cyclin E (Homo sapiens, UniProt P24941); assay: Enzymatic phosphorylation activity assay (Caliper mobility shift), CDK2/Cyclin E; assay type: biochemical
# T2 construct: purchased Eurofins 14-475
# Method: as §1
# CDK1/Cyclin B = molecular target: T3, CDK1/Cyclin B (Homo sapiens, UniProt P06493); assay: NanoBRET cellular target engagement assay, CDK1/Cyclin B in HEK-293 cells; assay type: cell-based; conditions: HEK-293 cells transfected with CDK1-NanoLuc and CCNB1; tracer K10 0.5 μM; 2 hrs
# T3 construct: NV2601; host or cells: HEK-293
# T3 sequence (P06493 whole entry): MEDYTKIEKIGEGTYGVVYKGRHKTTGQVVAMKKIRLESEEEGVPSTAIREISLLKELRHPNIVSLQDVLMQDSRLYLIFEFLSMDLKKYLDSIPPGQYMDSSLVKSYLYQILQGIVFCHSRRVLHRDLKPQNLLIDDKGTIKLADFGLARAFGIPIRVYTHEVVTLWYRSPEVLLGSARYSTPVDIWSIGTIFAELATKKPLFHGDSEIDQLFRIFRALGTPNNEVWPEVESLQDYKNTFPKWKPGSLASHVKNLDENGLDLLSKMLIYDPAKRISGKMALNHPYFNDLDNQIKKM
# T3 sequence (P14635 whole entry partner): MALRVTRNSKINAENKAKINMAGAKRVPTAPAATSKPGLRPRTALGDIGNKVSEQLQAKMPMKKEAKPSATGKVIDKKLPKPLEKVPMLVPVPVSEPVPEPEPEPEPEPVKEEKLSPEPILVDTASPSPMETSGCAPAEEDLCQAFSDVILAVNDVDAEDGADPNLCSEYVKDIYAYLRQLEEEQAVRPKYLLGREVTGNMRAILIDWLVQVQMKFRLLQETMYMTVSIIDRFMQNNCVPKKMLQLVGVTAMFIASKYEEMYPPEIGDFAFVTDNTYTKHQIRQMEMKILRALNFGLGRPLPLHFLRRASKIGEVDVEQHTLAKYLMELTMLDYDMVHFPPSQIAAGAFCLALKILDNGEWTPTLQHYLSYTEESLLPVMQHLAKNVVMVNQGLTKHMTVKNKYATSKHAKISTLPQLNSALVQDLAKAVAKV
# Method: (§2) In the assay, HEK-293 cells were cultured to appropriate confluence before being transiently transfected with a mix of CDK2-NanoLuc® Fusion Vector (Promega, NV2781) and CCNE1 expression vector (Promega, NV2641) for CDK2 NanoBRET assays, or CDK1-NanoLuc® Fusion Vector (Promega, NV2701) and CCNB1 expression vector (Promega, NV2601) for CDK1 NanoBRET assay, by using lipid: DNA complexes formed with FuGENE HD transfection agent (Promega, E2311). The transfected cells were cultured overnight in 1% FBS Opti-MEM media to allow the expression to fully occur. Once the expression fully occurred, varying concentrations of the test compounds were added to the cells, before a cell-permeable, fluorescent tracer (tracer K10 from Promega, N2840) was added to achieve final tracer concentration of 0.5 μM. After the addition of Nano-Glo substrate (part of a kit, Promega, N2840) and Extracellular NanoLuc inhibitor (part of a kit, Promega, N2840) 2 hrs after tracer addition, the cellular engagement of the tracer and the competition with testing compounds to the target protein was assessed based on the resulting bioluminescence resonance energy transfer (BRET) signal. BRET ratio was generated by dividing the acceptor emission signal (610 nm) by the donor emission signal (450 nm) for each sample. […] All IC50 curves were calculated using a 4 parameter logistic nonlinear regression model.
# CDK2/Cyclin E1 = molecular target: T4, CDK2/Cyclin E1 (Homo sapiens, UniProt P24941); assay: NanoBRET cellular target engagement assay, CDK2/Cyclin E1 in HEK-293 cells; assay type: cell-based; conditions: HEK-293 cells transfected with CDK2-NanoLuc and CCNE1; tracer K10 0.5 μM; 2 hrs
# T4 construct: NV2641; host or cells: HEK-293
# Method: as §2
# [1] = read-out: Enzyme CDK1/cyclin B1 IC50
# [2] = read-out: Enzyme CDK2/cyclin E IC50
# T1 sequence (P06493 whole entry): as the sequence (P06493 whole entry) above
# T1 sequence (P14635 whole entry partner): as the sequence (P14635 whole entry partner) above
IC50 (CDK1/Cyclin B) [nM],IC50 (CDK2/Cyclin E1) [nM],Compound,also measured
–,–,"(S)-7-chloro-N-(5-isopropyl-1H-pyrazol-3-yl)-5-(1-(pyridin-3-yl)ethyl)-5H-pyrrolo[2,3-b]pyrazin-3-amine [Example 6]","IC50 (CDK1/Cyclin B1, GST-tag; apparent IC50, 1.5 nM enzyme, 7.5 micromolar FL-Peptide 18, 1.0 mM ATP or ATP Km, 25° C.): 869 nM; IC50 (CDK2/Cyclin E; apparent IC50, 1.25 nM enzyme, 7.5 micromolar FL-Peptide 18, 1.0 mM ATP or ATP Km, 25° C.): 2.23 nM"
1300,110,"c1cnnc(Cn2ccc3ncc(Nc4cc(C5COC5)[nH]n4)nc32)c1 [Example 23, N-(5-(oxetan-3-yl)-1H-pyrazol-3-yl)-5-(pyridazin-3-ylmethyl)-5H-pyrrolo[2,3-b]pyrazin-3-amine]",–
3820,105,"Cc1cc(Nc2cnc3ccn(Cc4cccnn4)c3n2)n[nH]1 [Example 24, N-(5-methyl-1H-pyrazol-3-yl)-5-(pyridazin-3-ylmethyl)-5H-pyrrolo[2,3-b]pyrazin-3-amine]",–
> 10000,162,"CN1CCC(Cn2ccc3ncc(Nc4cc(OC(F)F)[nH]n4)nc32)CC1 [Example 8, N-(5-(difluoromethoxy)-1H-pyrazol-3-yl)-5-((1-methylpiperidin-4-yl)methyl)-5H-pyrrolo[2,3-b]pyrazin-3-amine]",–
–,–,"CC(C)c1cc(Nc2cnc3ccn([C@@H](C)c4cccnc4)c3n2)n[nH]1 [Example 3, (S)—N-(5-isopropyl-1H-pyrazol-3-yl)-5-(1-(pyridin-3-yl)ethyl)-5H-pyrrolo[2,3-b]pyrazin-3-amine]","IC50 (CDK1/Cyclin B1, GST-tag; [1]): 40 nM; IC50 (CDK2/Cyclin E; [2]): 0.03 nM"
347,1.1,"O[C@H]1CC[C@H](n2ccc3ncc(Nc4cc(OC(F)F)[nH]n4)nc32)CC1 [Example 12, (1r,4r)-4-(3-((5-(difluoromethoxy)-1H-pyrazol-3-yl)amino)-5H-pyrrolo[2,3-b]pyrazin-5-yl)cyclohexan-1-ol]",–
7460,8.8,"C[C@@H](CO)Cn1ccc2ncc(Nc3cc(OC(F)F)[nH]n3)nc21 [Example 15, (R)-3-(3-((5-(difluoromethoxy)-1H-pyrazol-3-yl)amino)-5H-pyrrolo[2,3-b]pyrazin-5-yl)-2-methylpropan-1-ol]",–
7560,112,"N#Cc1cc(Nc2cnc3ccn(Cc4cccnc4)c3n2)n[nH]1 [Example 20, 3-((5-(pyridin-3-ylmethyl)-5H-pyrrolo[2,3-b]pyrazin-3-yl)amino)-1H-pyrazole-5-carbonitrile]",–
> 10000,1130,"FC(F)Oc1cc(Nc2cnc3ccn(CC4CCNCC4)c3n2)n[nH]1 [Example 7, N-(5-(difluoromethoxy)-1H-pyrazol-3-yl)-5-(piperidin-4-ylmethyl)-5H-pyrrolo[2,3-b]pyrazin-3-amine]",–
1730,4.9,"FC(F)Oc1cc(Nc2cnc3ccn(C[C@H]4CCCNC4)c3n2)n[nH]1 [Example 9, (S)—N-(5-(difluoromethoxy)-1H-pyrazol-3-yl)-5-(piperidin-3-ylmethyl)-5H-pyrrolo[2,3-b]pyrazin-3-amine]",–
3210,6,"CN1CCC[C@H](Cn2ccc3ncc(Nc4cc(OC(F)F)[nH]n4)nc32)C1 [Example 10, (S)—N-(5-(difluoromethoxy)-1H-pyrazol-3-yl)-5-((1-methylpiperidin-3-yl)methyl)-5H-pyrrolo[2,3-b]pyrazin-3-amine]",–
–,–,"CC(C)c1cc(Nc2cnc3ccn(CC4CCOCC4)c3n2)n[nH]1 [Example 1, N-(5-isopropyl-1H-pyrazol-3-yl)-5-((tetrahydro-2H-pyran-4-yl)methyl)-5H-pyrrolo[2,3-b]pyrazin-3-amine]","IC50 (CDK1/Cyclin B1, GST-tag; [1]): 115 nM; IC50 (CDK2/Cyclin E; [2]): 0.44 nM"
2780,128,"c1cnnc(Cn2ccc3ncc(Nc4cc([C@@H]5CCOC5)[nH]n4)nc32)c1 (single isomer, unassigned) [Example 25, (S)-5-(pyridazin-3-ylmethyl)-N-(5-(tetrahydrofuran-3-yl)-1H-pyrazol-3-yl)-5H-pyrrolo[2,3-b]pyrazin-3-amine or (R)-5-(pyridazin-3-ylmethyl)-N-(5-(tetrahydrofuran-3-yl)-1H-pyrazol-3-yl)-5H-pyrrolo[2,3-b]pyrazin-3-amine]",–
–,–,"C[C@@H](c1cccnc1)n1ccc2ncc(Nc3cc(OC(F)F)[nH]n3)nc21 [Example 5, (S)—N-(5-(difluoromethoxy)-1H-pyrazol-3-yl)-5-(1-(pyridin-3-yl)ethyl)-5H-pyrrolo[2,3-b]pyrazin-3-amine]","IC50 (CDK1/Cyclin B1, GST-tag; [1]): 224 nM; IC50 (CDK2/Cyclin E; [2]): 0.22 nM"
207,6.9,"COc1cc(Nc2cnc3ccn(Cc4cccnn4)c3n2)n[nH]1 [Example 22, N-(5-methoxy-1H-pyrazol-3-yl)-5-(pyridazin-3-ylmethyl)-5H-pyrrolo[2,3-b]pyrazin-3-amine]",–
898,7.4,"FC(F)Oc1cc(Nc2cnc3ccn(Cc4cccnn4)c3n2)n[nH]1 [Example 13, N-(5-(difluoromethoxy)-1H-pyrazol-3-yl)-5-(pyridazin-3-ylmethyl)-5H-pyrrolo[2,3-b]pyrazin-3-amine]",–
4450,35.7,"Cc1cc(Nc2cnc3ccn(Cc4cccnc4)c3n2)n[nH]1 [Example 19, N-(5-methyl-1H-pyrazol-3-yl)-5-(pyridin-3-ylmethyl)-5H-pyrrolo[2,3-b]pyrazin-3-amine]",–
660,10.3,"COc1cc(Nc2cnc3ccn(Cc4cccnc4)c3n2)n[nH]1 [Example 18, N-(5-methoxy-1H-pyrazol-3-yl)-5-(pyridin-3-ylmethyl)-5H-pyrrolo[2,3-b]pyrazin-3-amine]",–
325,137,"OC1(Cn2ccc3ncc(Nc4cc(OC(F)F)[nH]n4)nc32)CCOCC1 [Example 14, 4-((3-((5-(difluoromethoxy)-1H-pyrazol-3-yl)amino)-5H-pyrrolo[2,3-b]pyrazin-5-yl)methyl)tetrahydro-2H-pyran-4-ol]",–
> 10000,1630,"COc1cc(Nc2cnc3ccn(C[C@H]4CCCN(C)C4)c3n2)n[nH]1 [Example 21, (S)—N-(5-methoxy-1H-pyrazol-3-yl)-5-((1-methylpiperidin-3-yl)methyl)-5H-pyrrolo[2,3-b]pyrazin-3-amine]",–
624,5.8,"c1cncc(Cn2ccc3ncc(Nc4cc([C@@H]5CCOC5)[nH]n4)nc32)c1 (single isomer, unassigned) [Example 17, (S)-5-(pyridin-3-ylmethyl)-N-(5-(tetrahydrofuran-3-yl)-1H-pyrazol-3-yl)-5H-pyrrolo[2,3-b]pyrazin-3-amine or (R)-5-(pyridin-3-ylmethyl)-N-(5-(tetrahydrofuran-3-yl)-1H-pyrazol-3-yl)-5H-pyrrolo[2,3-b]pyrazin-3-amine]",–
291,10.9,"c1cncc(Cn2ccc3ncc(Nc4cc(C5COC5)[nH]n4)nc32)c1 [Example 16, N-(5-(oxetan-3-yl)-1H-pyrazol-3-yl)-5-(pyridin-3-ylmethyl)-5H-pyrrolo[2,3-b]pyrazin-3-amine]",–
3580,16.9,"FC(F)Oc1cc(Nc2cnc3ccn(C[C@@H]4CCCNC4)c3n2)n[nH]1 [Example 27, (R)—N-(5-(difluoromethoxy)-1H-pyrazol-3-yl)-5-(piperidin-3-ylmethyl)-5H-pyrrolo[2,3-b]pyrazin-3-amine]",–
71.7,1.2,"C[C@@H](C1CCOCC1)n1ccc2ncc(Nc3cc(OC(F)F)[nH]n3)nc21 [Example 11, (S)—N-(5-(difluoromethoxy)-1H-pyrazol-3-yl)-5-(1-(tetrahydro-2H-pyran-4-yl)ethyl)-5H-pyrrolo[2,3-b]pyrazin-3-amine]",–
8310,112,"CN1CCC[C@@H](Cn2ccc3ncc(Nc4cc(OC(F)F)[nH]n4)nc32)C1 [Example 28, (R)—N-(5-(difluoromethoxy)-1H-pyrazol-3-yl)-5-((1-methylpiperidin-3-yl)methyl)-5H-pyrrolo[2,3-b]pyrazin-3-amine]",–
